Source: patent US5159085A, “2-anilino phenylacetic acid derivatives as inhibitors of PLA2 and lipoxygenase” (American Home Products Corporation, priority 1991, dated 1992)
Read-outs that look alike come from different tables or passages of the source.

Tests used:
[1] = tested on: TxB2 synthesis (cyclooxygenase) by rat glycogen-elicited polymorphonuclear leukocytes; assay: Inhibition of TxB2 synthesis by rat glycogen-elicited PMN (cyclooxygenase); assay type: cell-based, rat (female Wistar); conditions: read-out: IC50 (TxB2 synthesis)
Experimental: Rat polymorphonuclear leukocytes (PMNs) are obtained from female Wistar rats (150-200 g) which receive an injection of 6% glycogen (10 ml i.p.). Rats are sacrificed 18-24 hours post injection by CO2 asphyxiation and the elicited cells are harvested by peritoneal lavage using physiological saline (0.9% NaCl). The exudate is centrifuged at 400×g for 10 minutes. The supernatant fluid is discarded and the cell pellet is resuspended to a concentration of 2.0×10^7 cells/ml in HBSS containing Ca^++ and Mg^++ and 10 μM L-cysteine.
To 1 ml aliquots of cell suspension, test drugs or vehicle are added, then preincubated at 37° C. for 10 minutes. A 23187 (1 μM), [^3 H]-AA (3.0 μCi/ml) and unlabeled AA (1 μM) are then added and the samples are further incubated for 10 minutes. The reaction is terminated by centrifugation and pelleting cells. Supernatants are then analyzed by HPLC analysis on a 15 cm×4.6 mm ID supelcosil LC-18 (Supelco)(3M) column, using a two solvent system at a flow rate of 1.4 ml total flow as follows:
Percent solvent changes are accomplished in a linear fashion.
Injections: 150 μl of each supernatant is injected directly onto column and ^3 H arachidonic acid metabolites are monitored using an on-line radioactivity detector (Ramona, IN/US, Fairfield, NJ).
Standards: 10^4 -2.0×10^4 dpm of eicosanoids of interest are injected in 90 μl EtOH cocktail.
Co-chromatography with standard [^3 H] leukotriene B4 (LTB4) in medium of stimulated PMN exposed to drug is compared to that found in medium of stimulated cells exposed to no drug, generating percent inhibition.
Results are expressed as percent inhibition at a given compound dose or as an IC50 value.
In this assay, the procedure of Example 19 is carried out as described. However, in order to determine cyclooxygenase activity, the samples are co-chromatographed with authentic reference [^3 H]-TxB2.
The results are calculated as in Example 19 and presented below: […]

6-keto-PGF1α /TxB2 = assay: In vivo murine zymosan peritonitis assay, 6-keto-PGF1α (cyclooxygenase pathway); set-up: species or system mouse (male CD-1)
Experimental: The compounds of the invention are evaluated for their ability to inhibit the lipoxygenase and/or cyclooxygenase pathways of arachidonic acid metabolism in the in vivo murine zymosan peritonitis assay.
This assay is carried out as follows:
Male CD-1 mice (8 weeks old) are placed in plastic boxes in groups of six. Animals are injected with 1 ml i.p. of either 1% zymosan in pyrogen free 0.9% saline or saline (unstimulated control). Compounds are dosed orally 1 hour prior to zymosan injection. Twenty minutes after zymosan injection, the mice are asphyxiated by CO2 inhalation and the peritoneal cavity is lavaged with 2 ml ice cold Hanks Balanced Salt Solution (HBSS) without CaCl2, MgSO4 ·7H2 O and MgCL2 ·6H2 O. Peritoneal lavage fluid from each mouse is removed by syringe and placed in 5 ml plastic test tubes put on ice and volume is noted. Preparation of samples for evaluation by ELISA is as follows: Samples are centrifuged at 800×g for 15 minutes; 1 ml of the supernatant is added to 8 ml ice cold methanol and kept at -70° C. overnight to precipitate protein; and samples are then centrifuged at 800×g for 15 minutes, followed by a drying procedure in a Savant speed vac concentrator. The samples are reconstituted with 1 ml ice cold ELISA buffer and stored at -70° C. until assayed. The assay for eicosanoids (LTC4 and 6-keto-PGF1α) is performed according to conventional ELISA procedures.
Compounds to be tested orally are suspended in 0.5% Tween 80. Compounds to be tested intraperitoneally are suspended in 0.5% methylcellulose in 0.9% saline.
The total metabolite level in lavage fluid/mouse is calculated and the significance is determined by a one-way analysis of variance with LSD comparisons to control (p≤0.05). Drug effects are expressed as a percent change from control values.

human platelet PLA2 = target: T1, human platelet PLA2 (Homo sapiens, UniProt P14555); assay: In vitro isolated phospholipase A2 assay, human platelet PLA2 (arachidonic acid release from 3H-AA E. coli substrate); assay type: biochemical
T1 construct: Semipurified human platelet acid extract PLA2; from tissue; host or cells: human platelets (semipurified acid extract)
T1 sequence (P14555 21-144): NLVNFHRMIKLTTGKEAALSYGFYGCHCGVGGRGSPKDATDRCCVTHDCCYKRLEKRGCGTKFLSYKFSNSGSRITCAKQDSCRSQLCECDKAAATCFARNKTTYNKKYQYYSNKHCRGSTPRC

[2] = tested on: paw edema induced by exogenous PLA2 (snake, A. piscivorus piscivorus); assay: In vivo PLA2 murine paw edema assay; set-up: species or system mouse (male CD-1)
Experimental: The ability of the compounds of the invention to inhibit paw edema induced by the exogenous administration of PLA2 is measured in the in vivo PLA2 murine paw edema assay.
The assay is carried out as follows:
Non-fasted, male CD-1 mice (8 weeks old; 31-36 grams) are placed in plastic boxes in groups of six. The right hind paw volume is measured using mercury plethysmography (zero time). […] A solution of purified PLA2, from the diamond back cotton mouth snake (A. piscivorus piscivorus) is prepared in saline at a concentration of 6 μg/ml. Fifty (50) μl (0.3 μg) of this PLA2 solution is injected subcutaneously into the right hind paw with a plastic 1 ml plastic syringe (27 gauge, 1" needle). Paw volume of the injected paw is measured again at 10 minutes, 30 minutes and 60 minutes after PLA2 injection. Animals are euthanized with CO2 at the completion of the study.
The paw edema is calculated by subtracting the zero time volume from the volume recorded at each time period. Mean paw edema for each treatment group is then calculated and expressed as (μl±S.E.). Drug effects are expressed as a percent change from control (vehicle) values. Statistical significance is determined by a one-way analysis of variance with LSD comparison to control (p<0.05). ED50 's are determined using repression analysis.

Row | SMILES | IC50 ([1]; Rattus norvegicus, Leukocyte) | ED50 (6-keto-PGF1α /TxB2; Mus musculus, po, read-out: ED50 6-keto-PGF) | inhibition at 10 µM (human platelet PLA2; read-out: % Inhibition at 10 μM HP) | % Change in Edema 10 min ([2]; 10 mg/kg i.v.) | % Change in Edema 30 min ([2]; 10 mg/kg i.v.) | % Change in Edema 60 min ([2]; 10 mg/kg i.v.) | % Change in Edema 10 min ([2]; 100 mg/kg p.o.) | % Change in Edema 30 min ([2]; 100 mg/kg p.o.) | % Change in Edema 60 min ([2]; 100 mg/kg p.o.) | IC50 ([1]; rat PMN, acetic acid) | % Inhibition 6-keto-PGF (6-keto-PGF1α /TxB2; 50 mg/kg p.o., negative values denote potentiation) | % Inhibition 6-keto-PGF (6-keto-PGF1α /TxB2; 100 mg/kg p.o.) | inhibition at 10 µM (human platelet PLA2; 10 μM, Table IV, read-out: % Inhibition at a concentration of 10 μM, HP)
1 | O=C(O)Cc1ccccc1Nc1c(Cl)cccc1Cl [diclofenac, reference compound] | 0.03 µM | 0.77 mg/kg | 23% | -19% | -15% | -1% | -28% | -38% | -15% | – | – | – | –
2 | O=C(O)Cc1cc(OCc2ccc3ccccc3n2)ccc1Nc1c(Cl)cccc1Cl [Example 2, 2-[(2,6-Dichlorophenyl)amino]-5-(2-quinolylmethoxy)benzene acetic acid] | – | – | – | -45% | -37% | -32% | -52% | -48% | -28% | ~10 µM | -25% | 65% | 12.7%
